From patent US8093211B2, “Methods and pharmaceutical compositions for healing wounds” (Bar-Ilan University, priority 2001, dated 2012)
No end group written: not given here. *: point of attachment. Myristoyl = CCCCCCCCCCCCCC(=O)*

How the values were obtained:
[1] = system: PKCδ; assay: PKCδ kinase activity of immunoprecipitates from stimulated keratinocytes; assay type: cell-based, murine; conditions: 10^−7 M insulin or 10^−8 M IGF1 for 1, 15 or 30 minutes
Protocol: To determine PKCδ activity, five-day keratinocyte cultures were stimulated with 10^−7 M insulin (Ins) or 10^−8 M IGF1 (IGF) for the designated times (1, 15, or 30 minutes). PKCδ was immunoprecipitated from membrane (blue bars, mem) and cytosol (purple bars, cyto) fractions using specific anti-PKCδ antibody. PKCδ immunoprecipitates were analyzed for PKC activity utilizing an in vitro kinase assay as described in experimental procedures. Each bar represents the mean±SE of 3 determinations in 3 separate experiments. Values are expressed as pmol ATP/dish/min.
(§1) PKC activity: Specific PKC activity was determined in freshly prepared immunoprecipitates from keratinocyte cultures following appropriate treatments. These lysates were prepared in RIPA buffer without NaF. Activity was measured with the use of the SignaTECT Protein Kinase C Assay System (Promega, Madison, Wis., USA) according to the manufacturer's instructions. PKCα pseudosubstrate was used as the substrate in these studies.
(§2) In order to determine whether the translocation of PKCδ is sufficient for activation, kinase activity of PKC immunoprecipitates from the cytoplasm and membrane fractions of insulin and IGF1 treated keratinocytes was measured.

[2] = system: incision wounds on the back of C57BL mice; assay: Effect of PKCα inhibitor and insulin on wound inflammation in vivo (Example 23); conditions: for Incidence of severe inflammation I wound (%): treated daily for 7 days, 1 μM of each agent, observed seven days after wounding
Protocol: Late and severe inflammatory response in wounds may suppress the process of healing, thus preventing such inflammation from development may promote the wound healing process. Accordingly, the effect of PKCα inhibitor and insulin on wound inflammation was tested in the following experiment. Wounds were effected on the back of C57BL mice by incision and were treated daily for 7 days with: (i) PBS, control; (ii) 1 μM of a PKCα inhibitor (pseudosubstrate myristolated; Calibiochem, USA); (iii) 1 μM insulin (Eli Lilly, USA); or a mixture of 1 μM PKCα inhibitor and 1 μM insulin.

[3] = system: PKCδ; assay: Translocation of PKCδ from cytosol to membrane in proliferating keratinocytes (Western blot); assay type: cell-based, murine; conditions: 10^−7 M insulin or 10^−8 M IGF1; as early as 5 minutes following stimulation
Protocol: Primary keratinocytes were isolated and plated as described in the Examples section that follows. Proliferating keratinocytes were maintained for five days in low Ca^2+ medium (0.05 mM) until they reached 80% confluency. Cells were stimulated with 10^−7 M insulin (Ins) or 10^−8 M IGF1 (IGF) for 15 minutes. Cells were lysed, as described, and 20 μg of membrane or cytosol extracts of stimulated and control unstimulated (Cont) cells were subjected to SDS-PAGE and transfer. Blots were probed with specific polyclonal antibodies to each PKC isoform.
Isolation and culture of murine keratinocytes: Primary keratinocytes were isolated from newborn skin as previously described (18). […]
Preparation of cell extracts and Western blot analysis: For crude membrane fractions, whole cell lysates were prepared by scraping cells into PBS containing 10 μg/ml aprotinin, 10 μg/ml leupeptin, 2 μg/ml pepstatin, 1 mM PMSF, 10 mM EDTA, 200 μM NaVO4 and 10 mM NaF. […] Protein concentrations were measured using a modified Lowery assay (Bio-Rad DC Protein Assay Kit). […]
In order to try and identify the endogenous factors, which activate specific PKC isoforms regulating skin proliferation, the ability of several growth factors which are known to promote keratinocyte proliferation including: EGF, KGF, insulin, PDGF and IGF1 to activate specific PKC isoforms in a growth dependent manner was assessed. […]

[4] = system: PKCs α, ε, η, or ζ; assay: Kinase activity of other PKC isoforms after insulin stimulation of keratinocytes; assay type: cell-based, murine; conditions: up to 30 minutes following insulin stimulation
Protocol: as §1, §2

[5] = system: incision wounds on the back of C57BL mice; assay: Single vs. multiple applications of insulin for wound healing in vivo (Example 20)
Protocol: Wounds were effected on the back of 8-10 week old C57BL mice by incision and were treated with different concentrations and frequencies of insulin applications (i.e., seven daily repeat applications vs. a single application). The treated mice were sacrificed seven days after wounding and the areas of treated wounds were measured. The results are presented as mm^2 wound area and each bar represents the mean of six replications±standard deviation (p<0.005).
Wounds were effected on the back of 8-10 week old C57BL mice by incision and were treated with different concentrations of insulin and frequencies of applications (i.e., seven daily repeat applications vs. a single application). Histological wound sections were performed seven days after wounding and were analyzed for epidermal and dermal closure (wound contraction). Epidermal closure was assessed by Keratin 14 (K14) antibody staining (left panel) and was considered positive if the wound was stained positive across the entire gap. The dermal closure was considered positive if both dermal wound sides could be observed under a light microscope in a single field at ×10 magnification (right panel). The results are presented as percent of wound closure over control and each bar represents the mean of six replications.
Wounds were effected on the back of 8-10 week old C57BL mice by incision and were treated as follows: (i) insulin 0.1 μM applied daily for 7 days; (ii) insulin 1 μM applied daily for 7 days; (iii) insulin 10 μM applied daily for 7 days; (iv) insulin 1 μM applied once 4 days after wounding; and (v) vehicle (PBS) control applied daily for 7 days. All mice were sacrificed seven days after wounding and their open wound areas were measured.
Since the observed wounds were covered with a scar tissue it was difficult to correctly assess the actual closure of the wound and the formation of reconstructed epidermis. Therefore the effects of insulin on epidermal and dermal closure of wounds tissue were determined by histological parameters. Epidemial closure of wounds was determined by staining wound sections with Keratin 14 antibody (K14, Babco-Convance, Richmond, Calif., USA) which highlighted the formation of basal cells at the wound gap. Dermal closure of wounds was considered positive if both wound sides the dermis could be observed in a single field observed under a light microscope at ×10 magnification.

[6] = system: primary keratinocytes; assay: Keratinocyte proliferation by [3H]thymidine incorporation; assay type: cell-based, murine; conditions: for concentration of maximal induction of thymidine incorporation: stimulated for 24 hours, proliferating keratinocytes in low Ca2+
Protocol: Proliferating keratinocytes were maintained for five days in low Ca^2+ medium (0.05 mM) until they reached 80% confluence. (A) Five-day keratinocyte cultures were stimulated for 24 hours with insulin or IGF1 at the designated concentrations. (B) In parallel, keratinocytes were stimulated with 10^−7 M insulin (Ins) and increasing doses of IGF1 (IGF). At each concentration the right column (striped bar) represents proliferation observed when both hormones were added together. […] Thymidine incorporation was measured as described in experimental procedures. The results shown are representative of 6 experiments. Each bar represents the mean±SE of 3 determinations expressed as percent above control unstimulated keratinocytes.
Non-infected (light blue bars), or cells over-expressing WTPKCδ (dark blue bars) or DNPKCδ (slashed blue bars) were treated for 24 hours with 10^−7 M insulin (Ins), 10^−8 M IGF1 (IGF) or both (Ins+IGF). Thymidine incorporation was measured as described in experimental procedures. Each bar represents the mean±SE of 3 determinations in 3 experiments done on separate cultures. Values are expressed as percent of control, unstimulated cells from the same culture in each experiment.
Isolation and culture of murine keratinocytes: Primary keratinocytes were isolated from newborn skin as previously described (18). Keratinocytes were cultured in Eagle's Minimal Essential Medium (EMEM) containing 8% Chelex (Chelex-100, BioRad) treated fetal bovine serum. To maintain a proliferative basal cell phenotype, the final Ca^2+ concentration was adjusted to 0.05 mM. Experiments were performed five to seven days after plating.
Cell proliferaion: Cell proliferation was measured by [^3H]thymidine incorporation in 24 well plates. Cells were pulsed with [^3H]thymidine (1 μCi/ml) overnight. After incubation, cells were washed five times with PBS and 5% TCA was added into each well for 30 minutes. The solution was removed and cells were solubilized in 1% Triton X-100. The labeled thymidine incorporated into cells was counted in a ^3H-window of a Tricarb liquid scintillation counter.

[7] = system: STAT3; assay: Insulin induced STAT3 activation and nuclear translocation in keratinocytes (immunofluorescence); assay type: cell-based, murine; conditions: 5 μM Rottlerin for 7 minutes, followed by 10^−7 M insulin for 5 minutes
Protocol: Primary keratinocytes were plated on glass slides and maintained for 5 days in low Ca^++ medium (0.05 mmol/l) until they reached 80% confluency. Cells were untreated (Cont, upper panel) or pre-treated with 5 μM Rottlerin for 7 minutes (R, lower panel), followed by 10^−7 M insulin for 5 minutes (Ins). Cells were fixed by methanol, washed and air-dried. Cultures were analyzed by immunofluorescence using antiphospho-Tyr-705-STAT3 antibody, followed by FITC conjugated secondary antibody. Cells were scanned by confocal microscopy.
Immunofluorescence: Primary keratinocytes were plated on laminin 5 coated glass slides. Two days old keratinocytes were infected with PKC adenovirus for one hour, washed twice with PBS and maintained in culture in low Ca^2+ EMEM. Twenty four hours post infection, cells were fixed in 4% paraformaldehyde for 30 minutes followed by permeabilization with 0.2% Triton for 5 minutes. For analysis, control and PKC infected keratinocytes were rinsed with PBS and incubated overnight at 4° C. with PKC antibodies (Santa Cruz) diluted in 1% BSA in PBS. […] Following two washes in PBS, slides were mounted with glycerol buffer containing 1% of p-phenylenediamine (Sigma) and fluorescence examined by laser scanning confocal imaging microscopy (MRC 1024, Bio-Rad, UK).

[8] = system: over-expressed PKC isoforms; assay: Translocation of over-expressed PKC isoforms by PKC activator in infected keratinocytes; assay type: cell-based, mouse; conditions: stimulated for 30 minutes, 24 hours following infection
Protocol: Four day old primary keratinocytes were infected for 1 hour with isoform specific recombinant PKC adenoviruses. Twenty four hours following infection, cells were either untreated (C) or stimulated with bryostatin 1 (B) for 30 minutes, and fractionated. Protein samples were subjected to Western blotting and analyzed using isoform specific anti-PKC antibodies.
Preparation of cell extracts and Western blot analysis: For crude membrane fractions, whole cell lysates were prepared by scraping cells into PBS containing 10 μg/ml aprotinin, 10 μg/ml leupeptin, 2 μg/ml pepstatin, 1 mM PMSF, 10 mM EDTA, 200 μM NaVO4 and 10 mM NaF. After homogenization and 4 freeze/thaw cycles, lysates were spun down at 4° C. for 20 minutes in a microcentrifuge at maximal speed. The supernatant containing the soluble cytosol protein fraction was transferred to another tube. The pellet was resuspended in 250 μl PBS containing 1% Triton X-100 with protease and phosphatase inhibitors, incubated for 30 minutes at 4° C. and spun down in a microcentrifuge at maximal speed at 4° C. The supernatant contains the membrane fraction. Protein concentrations were measured using a modified Lowery assay (Bio-Rad DC Protein Assay Kit). Western blot analysis of cellular protein fractions was carried out as described (6). […]

## insulin: humulinR-recombinant human insulin, purchased from Eli Lilly
[1]
  activity of PKCδ in the membrane fraction: increased activity of PKCδ
[2]; 1 μM daily for 7 days
  effect on severe wound inflammation: not effective
[2]
  Incidence of severe inflammation I wound (%): 56.0%
[3]
  translocation of PKCδ between cytoplasm and membrane fractions: specifically induced translocation of PKCδ from the cytoplasm to the membranal fractions
[4]
  activation of PKCs α, ε, η, or ζ: no activation
[5]; 1 μM applied once 4 days after wounding, compared with seven repeat daily applications at 1 μM
  open wound area: substantially more effective
[5]; 1 μM daily for 7 days, compared with daily 0.1 μM or 10 μM
  open wound area: significantly more effective
[5]; 1 μM daily, compared with daily 0.1 μM or 10 μM
  epidermal and dermal closure (histology): significantly more effective
[5]; all insulin treatments (0.1, 1, 10 μM daily; 1 μM single)
  epidermal and dermal closure (histology): effectively promoted epidermal and dermal closure
[5]; single application 1 μM, compared with seven repeat daily applications at 1 μM
  epidermal and dermal closure (histology): substantially more effective
[6]
  concentration of maximal induction of thymidine incorporation: 10^−7 M
[6]; untransfected cells, 10^−7 M insulin for 24 hours
  increase of thymidine incorporation over untreated cells: two to three fold

## PKCα inhibitor: PKCα inhibitor of SEQ ID NO:1, PKCα pseudosubstrate myristoylated; Calbiochem (Myristoyl-FARKGALRQ)
[2]; 1 μM daily for 7 days
  decrease of severe wound inflammation incidence, as compared to control: 33.3%
[2]
  Incidence of severe inflammation I wound (%): 40.0%

## IGF1: growth factor IGF1, a gift from Cytolab (Israel)
[1]
  activity of PKCδ in the membrane fraction: insulin but not IGF1 increased activity of PKCδ
[3]
  translocation of PKCδ between cytoplasm and membrane fractions: reduced PKCδ expression in the membrane
[6]; 24 hours
  maximal stimulation of thymidine incorporation, compared at each concentration: greater than that by insulin
[6]
  concentration of maximal induction of thymidine incorporation: 10^−8 M

## CC(=O)c1c(O)c(C)c(O)c(Cc2c(O)c3c(c(C(=O)/C=C/c4ccccc4)c2O)OC(C)(C)C=C3)c1O [rottlerin]
[7]
  activation and nuclear translocation of STAT3 after insulin: inhibits activation as well as nuclear translocation of STAT3

## CCC/C=C/C=C/C(=O)O[C@H]1/C(=C/C(=O)OC)C[C@H]2C[C@H]([C@@H](C)O)OC(=O)C[C@H](O)C[C@@H]3C[C@H](OC(C)=O)C(C)(C)[C@](O)(C[C@@H]4C/C(=C/C(=O)OC)C[C@H](/C=C/C(C)(C)[C@]1(O)O2)O4)O3 [bryostatin 1]
[8]
  translocation of PKCα and δ proteins to the membrane fraction: induced translocation
  translocation of PKCη and ζ isoforms to the membrane fraction: lesser effect
